Details: free acid ion-paired with arginine in Arlatone G / ginger oil / water cubic phase; overlain with large excess of water; two days
Source text: The antiosteolytic drug Alendronate (as the free acid) was incorporated into a cubic phase based on the ethoxylated, hydrogenated castor oil surfactant Arlatone G (from Uniquema).

- amount of alendronate which leaked out of the cubic phase into the water: undetectable
Compound: NCCCC(O)(P(=O)(O)O)P(=O)(O)O [alendronate, Alendronate]
